The target of assay [1] is T1, D(2) dopamine receptor (Homo sapiens, UniProt P14416). Put plainly: In vitro displacement of [3H]spiperone from the recombinant human dopamine receptor D2L stably expressed in CHO cells. It is filed as cell-based.
Another assay concerns the target T2, D(4) dopamine receptor (Homo sapiens, UniProt P21917).
T2 sequence (P21917 whole entry): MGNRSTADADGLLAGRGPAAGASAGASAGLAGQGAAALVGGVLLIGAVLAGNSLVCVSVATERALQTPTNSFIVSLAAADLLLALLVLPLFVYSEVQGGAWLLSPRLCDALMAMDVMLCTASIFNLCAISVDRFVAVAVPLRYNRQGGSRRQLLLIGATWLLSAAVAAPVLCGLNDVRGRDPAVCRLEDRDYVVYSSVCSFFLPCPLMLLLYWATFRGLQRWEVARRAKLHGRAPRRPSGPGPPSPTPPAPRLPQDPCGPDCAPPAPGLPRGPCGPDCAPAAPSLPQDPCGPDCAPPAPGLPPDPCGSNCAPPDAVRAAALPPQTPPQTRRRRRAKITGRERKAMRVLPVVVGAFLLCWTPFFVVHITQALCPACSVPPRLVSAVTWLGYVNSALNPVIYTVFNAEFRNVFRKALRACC
Put plainly: In vitro displacement of [3H]spiperone from the recombinant human dopamine receptor D4 expressed in CHO cells. It is filed as cell-based. In general terms: Displacement assays read how much labelled ligand stays bound in the presence of the test substance.

Another assay deals with D(1A) dopamine receptor (Bos taurus, UniProt Q95136). Put plainly: In vitro displacement of [3H]- SCH 23390 from the dopamine receptor D1 of bovine striatal membrane.
Sequence of D(1A) dopamine receptor (Q95136 whole entry): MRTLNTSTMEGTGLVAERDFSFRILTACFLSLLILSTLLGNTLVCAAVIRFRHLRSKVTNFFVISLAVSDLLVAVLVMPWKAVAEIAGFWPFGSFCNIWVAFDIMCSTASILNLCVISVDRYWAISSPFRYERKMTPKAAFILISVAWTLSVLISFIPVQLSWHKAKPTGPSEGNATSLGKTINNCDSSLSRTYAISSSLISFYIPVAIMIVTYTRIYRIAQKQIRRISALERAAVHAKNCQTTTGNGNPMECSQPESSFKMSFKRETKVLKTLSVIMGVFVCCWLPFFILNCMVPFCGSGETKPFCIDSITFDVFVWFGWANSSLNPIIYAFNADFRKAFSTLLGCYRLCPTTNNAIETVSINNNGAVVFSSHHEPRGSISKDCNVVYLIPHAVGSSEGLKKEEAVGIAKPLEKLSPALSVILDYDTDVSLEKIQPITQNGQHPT
The next assay addresses D(3) dopamine receptor (Homo sapiens, UniProt P35462). Put plainly: In vitro displacement of [3H]spiperone from the cloned human dopamine receptor D3 stably expressed in CHO cells. It is filed as cell-based.
The target of assay [2] is T1, D(2) dopamine receptor. Put plainly: In vitro displacement of [3H]spiperone from the recombinant human dopamine receptor D2 short form expressed in CHO cells. Format: cell-based.

The structures appear in SMILES notation.

Sequence of D(3) dopamine receptor (P35462 whole entry): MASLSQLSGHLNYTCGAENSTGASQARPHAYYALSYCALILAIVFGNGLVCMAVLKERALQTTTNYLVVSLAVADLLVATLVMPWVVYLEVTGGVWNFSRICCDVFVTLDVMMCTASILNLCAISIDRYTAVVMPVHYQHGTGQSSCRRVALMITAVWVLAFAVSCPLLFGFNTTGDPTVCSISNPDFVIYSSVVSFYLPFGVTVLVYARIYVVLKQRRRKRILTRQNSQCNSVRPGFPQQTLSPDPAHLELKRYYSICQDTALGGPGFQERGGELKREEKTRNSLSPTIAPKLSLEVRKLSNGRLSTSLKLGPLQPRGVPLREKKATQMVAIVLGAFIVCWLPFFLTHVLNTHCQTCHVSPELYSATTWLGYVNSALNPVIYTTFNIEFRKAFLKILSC
T1 sequence (P14416 whole entry): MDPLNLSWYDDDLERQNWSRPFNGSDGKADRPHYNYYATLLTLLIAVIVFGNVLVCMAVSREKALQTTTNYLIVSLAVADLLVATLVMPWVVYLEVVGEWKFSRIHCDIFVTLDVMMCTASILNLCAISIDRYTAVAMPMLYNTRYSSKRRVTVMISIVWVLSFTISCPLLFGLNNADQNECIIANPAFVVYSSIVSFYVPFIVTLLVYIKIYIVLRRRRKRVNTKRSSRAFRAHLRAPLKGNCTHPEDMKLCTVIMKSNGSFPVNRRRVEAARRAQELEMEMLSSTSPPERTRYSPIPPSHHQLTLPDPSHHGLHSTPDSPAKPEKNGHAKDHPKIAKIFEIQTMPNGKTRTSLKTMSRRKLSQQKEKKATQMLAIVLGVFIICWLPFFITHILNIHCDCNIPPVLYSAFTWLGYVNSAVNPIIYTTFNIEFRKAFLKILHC

As usually defined, the Ki is the dissociation constant of the complex between target and ligand, obtained from inhibition or displacement. `COc1ccc(Br)cc1-c1nc(CNC2CCN(Cc3ccccc3)CC2)co1`: the Ki was 0.94 µM on D(2) dopamine receptor [1]; 0.39 µM at D(4) dopamine receptor; 12.5 µM on D(1A) dopamine receptor; 0.58 µM at D(3) dopamine receptor; 0.63 µM on D(2) dopamine receptor [2].

Regarding `COc1ccc(Br)cc1-c1nc(CNC[C@@H]2CCN(Cc3ccccc3)C2)co1` [listing 1 of 2 here], the Ki on D(2) dopamine receptor [1] is 0.51 µM; at D(4) dopamine receptor, 0.02 µM; on D(1A) dopamine receptor, 6.75 µM; on D(3) dopamine receptor, 0.083 µM; at D(2) dopamine receptor [2] it was 0.21 µM.

On to `COc1ccc(Br)cc1-c1nc(CNC[C@@H]2CCN(Cc3ccccc3)C2)cs1` [listing 1 of 2 here], for which the Ki on D(2) dopamine receptor [1] came out at 0.42 µM; at D(4) dopamine receptor, 0.17 µM; at D(1A) dopamine receptor it was 4.95 µM; at D(3) dopamine receptor it was 0.115 µM; at D(2) dopamine receptor [2], 0.28 µM.

On to `COc1ccc(Br)cc1-c1nc(CNCCC2CCN(Cc3ccccc3)C2)co1` (stereo not given), for which the inhibition constant (Ki) at D(2) dopamine receptor [1] worked out at 0.51 µM; on D(4) dopamine receptor, 0.15 µM; at D(1A) dopamine receptor, 6.6 µM; on D(3) dopamine receptor, 0.075 µM; on D(2) dopamine receptor [2] it was 0.31 µM.

For the compound `c1ccc(CN2CCC(NCc3csc(-c4ccccc4)n3)CC2)cc1`, the Ki stood at 23 µM at D(2) dopamine receptor [1]; 0.053 µM on D(4) dopamine receptor; 6.8 µM at D(1A) dopamine receptor; 2.3 µM at D(3) dopamine receptor; 13.5 µM on D(2) dopamine receptor [2].

Consider `COc1ccc(Br)cc1-c1nc(CN2CCN(c3ccccc3)CC2)co1`, for which the Ki at D(2) dopamine receptor [1] was 0.69 µM; at D(4) dopamine receptor, 0.37 µM; at D(1A) dopamine receptor, 4.85 µM; at D(3) dopamine receptor, 0.66 µM; on D(2) dopamine receptor [2] it was 0.33 µM.

Take `COc1ccc(Br)cc1-c1nc(CN2CCN(Cc3ccccc3)CC2)cs1`: the inhibitory constant (Ki) was determined as 0.21 µM on D(2) dopamine receptor [1]; 0.37 µM on D(4) dopamine receptor; 10.5 µM on D(1A) dopamine receptor; 0.64 µM at D(3) dopamine receptor; 0.085 µM at D(2) dopamine receptor [2].

For `COc1c(-c2nc(CNC[C@@H]3CCN(Cc4ccccc4)C3)co2)cc(Br)c2ccccc12`, the Ki is 45.5 µM at D(2) dopamine receptor [1]; 15.5 µM on D(4) dopamine receptor; 100 µM at D(1A) dopamine receptor; 5.85 µM at D(3) dopamine receptor; 17.5 µM at D(2) dopamine receptor [2].

As for `COc1ccc(Br)cc1-c1nc(CN(C)C[C@@H]2CCN(Cc3ccccc3)C2)co1`, the Ki on D(2) dopamine receptor [1] turned out to be 3.8 µM; on D(4) dopamine receptor it was 0.65 µM; at D(1A) dopamine receptor, 5.45 µM; on D(3) dopamine receptor, 1.2 µM; at D(2) dopamine receptor [2] it was 3.25 µM.

In the case of `COc1ccc(Br)cc1-c1nc(CNC[C@@H]2CCN(Cc3ccccc3)C2)co1` [listing 2 of 2 here], the Ki at D(2) dopamine receptor [1] worked out at 0.32 µM; at D(4) dopamine receptor, 0.011 µM; at D(1A) dopamine receptor, 3.5 µM; on D(3) dopamine receptor, 0.065 µM; at D(2) dopamine receptor [2] it was 0.245 µM.

For the compound `COc1ccc(Br)cc1-c1nc(CNC2CCN(Cc3ccccc3)CC2)cs1`, the Ki was 0.195 µM at D(2) dopamine receptor [1]; 0.4 µM on D(4) dopamine receptor; 4.5 µM on D(1A) dopamine receptor; 0.205 µM at D(3) dopamine receptor; 0.105 µM on D(2) dopamine receptor [2].

As for `COc1ccc(Br)cc1-c1nc(CN[C@@H]2CCN(Cc3ccccc3)C2)co1` [listing 1 of 2 here], the Ki came out at 8.25 µM on D(2) dopamine receptor [1]; 0.51 µM at D(4) dopamine receptor; 16 µM at D(1A) dopamine receptor; 1.85 µM on D(3) dopamine receptor; 6.6 µM at D(2) dopamine receptor [2].

With `c1ccc(-c2nc(CN3CCN(c4ccccc4)CC3)co2)cc1`, the inhibition constant (Ki) at D(2) dopamine receptor [1] was 3 µM; at D(4) dopamine receptor, 0.25 µM; on D(1A) dopamine receptor it was 11.5 µM; on D(3) dopamine receptor it was 3.95 µM; on D(2) dopamine receptor [2] it was 1.75 µM.

Consider `COc1ccc(Br)cc1-c1nc(CN2CCN(c3ccccc3)CC2)cs1`, for which the Ki on D(2) dopamine receptor [1] was found to be 0.61 µM; at D(4) dopamine receptor, 0.59 µM; at D(1A) dopamine receptor it was 1.25 µM; on D(3) dopamine receptor, 1.19 µM; at D(2) dopamine receptor [2], 0.44 µM.

Turning to `Oc1ccc(Br)cc1-c1nc(CN2CCN(c3ccccc3)CC2)co1`, the Ki on D(2) dopamine receptor [1] turned out to be 6.65 µM; at D(4) dopamine receptor, 0.58 µM; at D(1A) dopamine receptor, 17.5 µM; on D(3) dopamine receptor, 7.6 µM; on D(2) dopamine receptor [2], 4.4 µM.

Consider `c1ccc(-c2nc(CN3CCN(c4ccccc4)CC3)cs2)cc1`, for which the Ki on D(2) dopamine receptor [1] amounted to 2.3 µM; at D(4) dopamine receptor it was 0.45 µM; on D(1A) dopamine receptor, 19.5 µM; at D(3) dopamine receptor, 2.05 µM; at D(2) dopamine receptor [2], 1.06 µM.

As for `COc1ccc(Br)cc1-c1nc(CN2CCN(Cc3ccccc3)CC2)co1`, the Ki at D(2) dopamine receptor [1] came out at 1.5 µM; on D(4) dopamine receptor it was 0.71 µM; at D(1A) dopamine receptor it was 15.5 µM; on D(3) dopamine receptor, 1.05 µM; on D(2) dopamine receptor [2] it was 0.79 µM.

In the case of `COc1ccc(Br)cc1-c1nc(CNC[C@@H]2CCN(Cc3ccccc3)C2)cs1` [listing 2 of 2 here], the Ki at D(2) dopamine receptor [1] turned out to be 0.185 µM; on D(4) dopamine receptor, 0.15 µM; on D(1A) dopamine receptor, 4 µM; at D(3) dopamine receptor it was 0.22 µM; on D(2) dopamine receptor [2] it was 0.092 µM.

With `c1ccc(CN2CC[C@@H](CNCc3csc(-c4ccccc4)n3)C2)cc1` (stereo in doubt; 4q), the Ki at D(2) dopamine receptor [1] is 7.9 µM; on D(4) dopamine receptor, 0.39 µM; on D(1A) dopamine receptor, 8.85 µM; at D(3) dopamine receptor, 0.66 µM; on D(2) dopamine receptor [2] it was 5.05 µM.

In the case of `c1ccc(CN2CC[C@@H](CNCc3csc(-c4ccccc4)n3)C2)cc1` (stereo in doubt), the Ki on D(2) dopamine receptor [1] stood at 7.95 µM; on D(4) dopamine receptor (cho), 0.39 µM; on D(1A) dopamine receptor it was 13.5 µM; at D(3) dopamine receptor, 0.88 µM; on D(2) dopamine receptor [2], 6.4 µM.

In the case of `COc1ccc(Br)cc1-c1ncc(CNC[C@@H]2CCN(Cc3ccccc3)C2)[nH]1`, the Ki on D(2) dopamine receptor [1] was 6.25 µM; on D(4) dopamine receptor, 1.11 µM; on D(1A) dopamine receptor, 8.9 µM; at D(3) dopamine receptor it was 1.3 µM; at D(2) dopamine receptor [2] it was 2.75 µM.

For the compound `c1ccc(CN2CCN(Cc3csc(-c4ccccc4)n3)CC2)cc1`, the Ki at D(2) dopamine receptor [1] amounted to 28 µM; at D(4) dopamine receptor, 0.59 µM; at D(1A) dopamine receptor it was 9.2 µM; on D(3) dopamine receptor it was 5.25 µM; at D(2) dopamine receptor [2], 19.5 µM.

Regarding `c1ccc(CN2CCN(Cc3coc(-c4ccccc4)n3)CC2)cc1`, the Ki on D(2) dopamine receptor [1] stood at 27.5 µM; at D(4) dopamine receptor, 1.45 µM; at D(1A) dopamine receptor, 72 µM; on D(3) dopamine receptor, 8.4 µM; on D(2) dopamine receptor [2] it was 21.5 µM.

Regarding `COc1ccc(Br)cc1-c1nc(CNCC[C@@H]2CCN(Cc3ccccc3)C2)co1`, the inhibition constant Ki on D(2) dopamine receptor [1] is 1.07 µM; at D(4) dopamine receptor, 0.17 µM; on D(1A) dopamine receptor, 8.95 µM; at D(3) dopamine receptor, 0.12 µM; on D(2) dopamine receptor [2], 1.1 µM.

With `COc1ccc(Br)cc1-c1nc(CN[C@@H]2CCN(Cc3ccccc3)C2)co1` [listing 2 of 2 here], the Ki stood at 2.45 µM on D(2) dopamine receptor [1]; 0.039 µM on D(4) dopamine receptor; 8 µM on D(1A) dopamine receptor; 1.7 µM on D(3) dopamine receptor; 2 µM at D(2) dopamine receptor [2].

Turning to `c1ccc(CN2CCC(NCc3coc(-c4ccccc4)n3)CC2)cc1`, the Ki on D(2) dopamine receptor [1] was determined as 14 µM; on D(4) dopamine receptor it was 0.35 µM; on D(1A) dopamine receptor it was 30 µM; on D(3) dopamine receptor, 6.1 µM; on D(2) dopamine receptor [2], 8.65 µM.

Values taken from ChEMBL document CHEMBL1133305, “Phenyloxazoles and phenylthiazoles as benzamide bioisosteres: synthesis and dopamine receptor binding profiles” (Bioorg Med Chem Lett, 2000).
